Assay results: patent publication US6399088B1, “Citric acid tri-alkylamide surfactants” (Air Products and Chemicals, Inc., priority 2000, dated 2002)
Marks after values point to notes of the source that are not given here.

Assays:
Assay type in all cases: physicochemical
[1] = Dynamic surface tension of aqueous solutions, maximum-bubble pressure method; conditions: for γ (0.1 wt % solution) (1 b/s) / γ (0.1 wt % solution) (6 b/s): 0.1 wt % solution in water
Method: Solutions of the citramides of Examples 1-4 in distilled water were prepared. Dynamic surface tension data were obtained using the maximum-bubble pressure method at bubble rates from 0.1 bubbles/second (b/s) to 20 b/s as described in Langmuir 1986, 2, 428-432. […] In practical terms, high bubble rates correspond to high printing speeds in lithographic printing, high spray or roller velocities in coating applications, rapid application rates for agricultural products and electronics cleaning and processing.
(§1) The solubility limits of Examples 6 and 7 were determined by intersection of the linear portion of a surface tension/In (concentration) curve with the limiting surface tension as is described in many textbooks. Since Example 8 contained insoluble material at 0.005 wt %, the solubility limit is reported as <0.005 wt %. Also, the solubility limit of ˜10 wt % reported for Example 1 is the lowest concentration at which a significant amount of insoluble material was seen. The relative efficiency of surfactants can be obtained by comparing surface tension reduction of solutions containing the same amount of different surfactants. Such data is given for 0.1 wt % solutions of the tri-alkylcitramides at 1.0 and 6.0 b/s. The limiting surface tensions at 0.1, 1, 6 and 20 b/s represent the lowest surface tensions in water which can be achieved at the given surface creation rates for a given surfactant regardless of the amount of surfactant used and is used to evaluate the effectiveness of a surfactant. These values give information about the relative ability of a surfactant to reduce surface defects under near-equilibrium conditions (0.1 b/s) through very dynamic conditions (20 b/s). Lower surface tensions would allow the elimination of defects upon application of a formulation onto lower energy surfaces.

[2] = Solubility limit in water
Method: as §1

[3] = Foam test based upon ASTM D 1173-53; conditions: 0.1 wt % solution; for initial foam: foam height at completion of addition
Method: The foaming properties of a 0.1 wt % solutions of the tri-alkylcitramides (N,N′,N″-tri-n-propylcitramide, N, N′, N″-tri-n-butylcitramide, N, N′, N″-tri-iso-butylcitramide and N,N′,N″-tri-iso-amylcitramide) were examined using a procedure based upon ASTM D 1173-53. In this test, a 0.1 wt % solution of the citramide surfactant was added from an elevated glass pipette to a receiver containing the same solution. The foam height was measured at the completion of the addition (“Initial Foam Height”) and the time required for the foam to dissipate at the air-liquid interface (“Time to 0 Foam”) was recorded. This test provided a comparison between the foaming characteristics of the various citramides. In general, in coatings, inks, adhesives, agricultural and electronics cleaning formulations, foam is undesirable because it complicates handling and can lead to coating and print defects, and to inefficient application of materials.

[4] = limiting surface tension in water, 0.1 bubbles/second
[5] = limiting surface tension in water, 1 bubble/second
[6] = limiting surface tension in water, 6 bubbles/second
[7] = limiting surface tension in water, 20 bubbles/second
[8] = in water, from observed insoluble material

SMILES | γ (0.1 wt % solution) (1 b/s) ([1]; 1 b/s) | γ (0.1 wt % solution) (6 b/s) ([1]; 6 b/s) | γ limiting (0.1 b/s) [1, 4] | γ limiting (1 b/s) [1, 5] | γ limiting (6 b/s) [1, 6] | γ limiting (20 b/s) [1, 7] | solubility limit ([2]; in distilled water) | solubility limit [2, 8] | time to zero foam [3] | initial foam [3] | relative solubility in water ([2]; in comparison to N,N′,N″-tri-iso-butylcitramide) | dynamic surface tension (0.1 b/s) ([1]; added to water at 5 wt %, material remained undissolved, 0.1 b/s) | dynamic surface tension (1 b/s) ([1]; added to water at 5 wt %, material remained undissolved, 1 b/s) | dynamic surface tension (6 b/s) ([1]; added to water at 5 wt %, material remained undissolved, 6 b/s) | dynamic surface tension (20 b/s) ([1]; added to water at 5 wt %, material remained undissolved, 20 b/s) | γ limiting (0.1 b/s) ([1]; limiting γ at 0.005 wt. % surfactant, 0.1 b/s) | γ limiting (1 b/s) ([1]; limiting γ at 0.005 wt. % surfactant, 1 b/s) | γ limiting (6 b/s) ([1]; limiting γ at 0.005 wt. % surfactant, 6 b/s) | γ limiting (20 b/s) ([1]; limiting γ at 0.005 wt. % surfactant, 20 b/s)
CCCNC(=O)CC(O)(CC(=O)NCCC)C(=O)NCCC [Example 1, N,N′,N″-tri-n-propylcitramide] | 66.7 Dyne/cm | 67.2 Dyne/cm | 42.9 Dyne/cm | 43.1 Dyne/cm | 43.7 Dyne/cm | 44.9 Dyne/cm | ˜10 Weight % | ~10 wt % | 10 s | 2.8 cm |  |  |  |  |  |  |  |  | 
CCCCNC(=O)CC(O)(CC(=O)NCCCC)C(=O)NCCCC [Example 2, N,N′,N″-tri-n-butylcitramide] | 51.2 Dyne/cm | 52.6 Dyne/cm | 43.6 Dyne/cm | 43.9 Dyne/cm | 44.6 Dyne/cm | 46.2 Dyne/cm | 0.4 Weight % |  | 9 s | 1.3 cm | more soluble |  |  |  |  |  |  |  | 
CC(C)CNC(=O)CC(O)(CC(=O)NCC(C)C)C(=O)NCC(C)C [Example 3, N,N′,N″-tri-iso-butylcitramide] | 51.8 Dyne/cm | 52.5 Dyne/cm | 46.6 Dyne/cm | 46.8 Dyne/cm | 47.3 Dyne/cm | 48.4 Dyne/cm | 0.2 Weight % |  | 10 s | 1.0 cm |  |  |  |  |  |  |  |  | 
CC(C)CCNC(=O)CC(O)(CC(=O)NCCC(C)C)C(=O)NCCC(C)C [Example 4, N,N′,N″-tri-iso-amylcitramide] | 63.3 Dyne/cm | 66.6 Dyne/cm |  |  |  |  | <0.005 Weight % | < 0.005 wt % | 2 s | 1.3 cm |  | 45.7 dyne/cm | 45.9 dyne/cm | 46.4 dyne/cm | 47.4 dyne/cm | 51.6^c Dyne/cm | 62.6^c Dyne/cm | 67.0^c Dyne/cm | 71.4^c Dyne/cm
